row,Compound,logP
1,COC(=O)c1cc(Oc2ccc(C(F)(F)F)cc2Cl)ccc1[N+](=O)[O-],4.26
2,CCOC(=O)C(C)Oc1cc(Oc2ccc(C(F)(F)F)cc2Cl)ccc1[N+](=O)[O-] (stereo unspecified),4.53
3,Nc1c([N+](=O)[O-])ccc(Oc2ccccc2)c1Cl,4.04
4,O=C(Oc1ccccc1Cl)N1CCCC1,3.13
5,O=C(Oc1ccc(Cl)cc1Cl)N1CCCC1,3.94
6,CCOC(=O)C(C)OC(=O)c1cc(Oc2ccc(C(F)(F)F)cc2Cl)ccc1[N+](=O)[O-] (stereo unspecified),4.81
7,C#CCOc1cc(OC(=O)N2CCC(F)(F)CC2)c(Cl)cc1Cl,3.57
8,CCOc1cc(Oc2ccc(C(F)(F)F)cc2Cl)ccc1[N+](=O)[O-],4.73
9,O=[N+]([O-])c1ccc(Oc2ccc(C(F)(F)F)cc2Cl)cc1,4.54
10,COC(=O)c1cc(OC(=O)N2CCCC2)c(Cl)cc1Cl,3.95
11,C#CCOc1cc(OC(=O)N2CCCC2)c(Cl)cc1Cl,3.82
12,O=[N+]([O-])c1ccc(Oc2ccccc2)cc1,3.92
13,COC(=O)CON=C(C)c1cc(Oc2ccc(C(F)(F)F)cc2Cl)ccc1[N+](=O)[O-],4.54
14,COC(=O)c1cc(Oc2ccc(C(F)(F)F)cc2Cl)ccc1Cl,5.04

# Results, then the compound that gave them:
row,logP,Compound
1,4.21,COC(=O)c1cc(Oc2cc(C(F)(F)F)ccc2Cl)ccc1[N+](=O)[O-]
2,3.38,O=C(Oc1ccc(Cl)cc1)N1CCCC1
3,3.65,COC(=O)c1cc(S(=O)c2ccc(C(F)(F)F)cc2Cl)ccc1[N+](=O)[O-] (stereo unspecified)
4,3.95,C#CCOc1cc(OC(=O)N(CC)CC)c(Cl)cc1Cl
5,3.42,C#CCOc1cc(OC(=O)N2CCC(F)(F)C2)c(Cl)cc1Cl
6,4.76,COC(=O)c1cc(Sc2ccc(C(F)(F)F)cc2Cl)ccc1[N+](=O)[O-]
7,2.93,C#CCOC1=Nc2cc(OC(=O)N3CCCC3)c(Cl)cc2OC1
8,4.67,CC(C)OC(=O)c1cc(OC(=O)N2CCCC2)c(Cl)cc1Cl
9,4.25,C#CCOc1cc(OC(=O)N2CCCCC2)c(Cl)cc1Cl
10,2.98,O=C(Oc1cc(O)c(Cl)cc1Cl)N1CCCC1
11,4.33,O=[N+]([O-])c1ccc(Oc2ccc(C(F)(F)F)cc2Cl)cc1Oc1ccoc1
12,2.73,O=C(Oc1ccccc1)N1CCCC1
13,3.57,COC(=O)c1cc(S(=O)(=O)c2ccc(C(F)(F)F)cc2Cl)ccc1[N+](=O)[O-]
14,4.27,O=C(O)COC(=O)c1cc(Oc2ccc(C(F)(F)F)cc2Cl)ccc1[N+](=O)[O-]
15,4.4,Cc1cccc(Oc2ccc([N+](=O)[O-])cc2)c1
16,4.54,C=COC(=O)C(C)Oc1cc(Oc2ccc(C(F)(F)F)cc2Cl)ccc1[N+](=O)[O-] (stereo unspecified)
17,4.22,CC(C)OC(=O)c1cc(OC(=O)N2CCCC2)c(F)cc1Cl

# — the OPERA property sets (Mansouri et al. 2018)
